These results are taken from ChEMBL document CHEMBL1150976, “The selectivity of protein kinase inhibitors: a further update” (Biochem J, 2007).

Experiment [1] deals with Serine/threonine-protein kinase PAK 5 (Homo sapiens) (UniProt Q9P286). As to the kind of experiment: Percentage PAK5 activity remaining in the presence of 0.01uM inhibitor.
The target in experiment [2] is Serine/threonine-protein kinase N2 (Homo sapiens) (UniProt Q16513). The experiment can be described thus: Percentage PRK2 activity remaining in the presence of 0.01uM inhibitor.
The target of experiment [3] is RAC-alpha serine/threonine-protein kinase (Homo sapiens) (UniProt P31749). The experiment can be described thus: Percentage PKBalpha activity remaining in the presence of 0.01uM inhibitor.
Experiment [4] addresses T1, Dual specificity tyrosine-phosphorylation-regulated kinase 3 (Homo sapiens) (UniProt O43781).
T1 sequence (whole entry): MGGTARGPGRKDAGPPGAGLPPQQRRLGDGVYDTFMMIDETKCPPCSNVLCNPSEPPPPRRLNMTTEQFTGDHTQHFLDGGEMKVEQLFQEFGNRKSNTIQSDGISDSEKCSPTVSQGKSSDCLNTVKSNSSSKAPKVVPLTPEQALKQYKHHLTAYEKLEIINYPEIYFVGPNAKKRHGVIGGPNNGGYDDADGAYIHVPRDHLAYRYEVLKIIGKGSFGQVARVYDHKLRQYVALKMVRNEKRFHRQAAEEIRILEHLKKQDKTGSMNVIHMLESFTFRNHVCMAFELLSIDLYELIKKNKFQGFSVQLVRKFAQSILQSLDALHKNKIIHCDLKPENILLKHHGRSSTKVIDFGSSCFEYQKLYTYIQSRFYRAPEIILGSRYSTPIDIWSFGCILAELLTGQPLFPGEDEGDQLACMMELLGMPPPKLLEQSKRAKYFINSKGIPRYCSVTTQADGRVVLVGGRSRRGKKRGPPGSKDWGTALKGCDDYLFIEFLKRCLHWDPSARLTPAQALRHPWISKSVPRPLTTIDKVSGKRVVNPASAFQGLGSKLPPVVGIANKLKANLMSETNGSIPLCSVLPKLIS
The experiment can be described thus: Percentage DYRK3 activity remaining in the presence of 0.01uM inhibitor.

The target of experiment [5] is Serine/threonine-protein kinase PLK1 (Homo sapiens, UniProt P53350). As to the kind of experiment: Percentage PLK1 activity remaining in the presence of 0.01uM inhibitor.
In experiment [6] the target is T2, Mitogen-activated protein kinase 13 (Homo sapiens) (UniProt O15264).
T2 sequence (whole entry): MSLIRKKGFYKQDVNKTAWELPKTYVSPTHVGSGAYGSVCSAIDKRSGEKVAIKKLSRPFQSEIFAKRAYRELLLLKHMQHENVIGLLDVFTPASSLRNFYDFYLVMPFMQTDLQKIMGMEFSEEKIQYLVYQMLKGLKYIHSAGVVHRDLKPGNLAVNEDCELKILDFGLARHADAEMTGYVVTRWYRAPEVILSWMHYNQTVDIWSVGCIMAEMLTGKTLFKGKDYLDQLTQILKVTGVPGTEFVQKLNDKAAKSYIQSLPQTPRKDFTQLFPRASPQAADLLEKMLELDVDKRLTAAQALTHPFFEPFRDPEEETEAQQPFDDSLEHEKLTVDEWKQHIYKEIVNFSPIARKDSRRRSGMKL
The experiment can be described thus: Percentage p38delta activity remaining in the presence of 0.01uM inhibitor.

The target in experiment [7] is Serine/threonine-protein kinase pim-3 (Homo sapiens, UniProt Q86V86). The experiment can be described thus: Percentage PIM3 activity remaining in the presence of 0.01uM inhibitor.
Another experiment is filed under the species Rattus norvegicus. As to the kind of experiment: Percentage AMPK activity remaining in the presence of 0.01uM inhibitor.
In experiment [8] the target is MAP kinase-interacting serine/threonine-protein kinase 1 (Homo sapiens) (UniProt Q9BUB5). The experiment can be described thus: Percentage MNK1 activity remaining in the presence of 0.01uM inhibitor.
Experiment [9] concerns the target T3, Serine/threonine-protein kinase Sgk1 (Homo sapiens) (UniProt O00141).
T3 sequence (whole entry): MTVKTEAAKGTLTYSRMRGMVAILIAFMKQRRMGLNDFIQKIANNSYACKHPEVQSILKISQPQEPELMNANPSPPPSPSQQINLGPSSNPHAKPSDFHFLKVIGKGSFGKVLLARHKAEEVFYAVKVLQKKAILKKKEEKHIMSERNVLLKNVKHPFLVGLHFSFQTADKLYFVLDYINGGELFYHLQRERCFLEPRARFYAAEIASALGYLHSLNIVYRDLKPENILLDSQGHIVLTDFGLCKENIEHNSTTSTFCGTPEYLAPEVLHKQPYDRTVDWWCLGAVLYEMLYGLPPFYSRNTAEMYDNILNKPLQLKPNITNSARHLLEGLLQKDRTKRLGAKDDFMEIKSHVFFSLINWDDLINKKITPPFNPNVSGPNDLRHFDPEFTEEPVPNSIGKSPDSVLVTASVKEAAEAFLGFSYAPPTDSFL
The experiment can be described thus: Percentage SGK1 activity remaining in the presence of 0.01uM inhibitor.

Experiment [10] addresses Rho-associated protein kinase 2 (Homo sapiens) (UniProt O75116). The experiment can be described thus: Percentage ROCK2 activity remaining in the presence of 0.01uM inhibitor.
In experiment [11] the target is Serine/threonine-protein kinase PAK 6 (Homo sapiens) (UniProt Q9NQU5). As to the kind of experiment: Percentage PAK6 activity remaining in the presence of 0.01uM inhibitor.
For experiment [12], the target named is Tyrosine-protein kinase CSK (Homo sapiens, UniProt P41240). As to the kind of experiment: Percentage CSK activity remaining in the presence of 0.01uM inhibitor.
For experiment [13], the target named is Calcium/calmodulin-dependent protein kinase kinase 2 (Homo sapiens) (UniProt Q96RR4). The experiment can be described thus: Percentage CaMKKbeta activity remaining in the presence of 0.01uM inhibitor.
The target in experiment [14] is MAP kinase-interacting serine/threonine-protein kinase 2 (Homo sapiens) (UniProt Q9HBH9). The experiment can be described thus: Percentage MNK2 activity remaining in the presence of 0.01uM inhibitor.
The target of experiment [15] is T4, Serine/threonine-protein kinase 3 (Homo sapiens) (UniProt Q13188).
T4 sequence (whole entry): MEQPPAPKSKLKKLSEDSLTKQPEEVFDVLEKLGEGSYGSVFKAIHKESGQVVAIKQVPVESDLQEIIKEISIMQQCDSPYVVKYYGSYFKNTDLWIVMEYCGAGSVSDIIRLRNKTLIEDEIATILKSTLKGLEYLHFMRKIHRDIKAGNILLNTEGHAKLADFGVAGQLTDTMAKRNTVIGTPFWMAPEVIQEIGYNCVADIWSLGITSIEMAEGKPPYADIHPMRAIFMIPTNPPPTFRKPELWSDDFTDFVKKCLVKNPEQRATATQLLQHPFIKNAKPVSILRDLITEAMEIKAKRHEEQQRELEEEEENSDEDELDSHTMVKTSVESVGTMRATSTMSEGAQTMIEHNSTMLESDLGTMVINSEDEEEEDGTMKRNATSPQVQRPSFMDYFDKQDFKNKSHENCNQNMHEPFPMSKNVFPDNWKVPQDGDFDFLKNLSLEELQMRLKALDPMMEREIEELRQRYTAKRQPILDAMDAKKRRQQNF
The experiment can be described thus: Percentage MST2 activity remaining in the presence of 0.01uM inhibitor.

Sequence of Tyrosine-protein kinase CSK (P41240 2-450 limits assumed): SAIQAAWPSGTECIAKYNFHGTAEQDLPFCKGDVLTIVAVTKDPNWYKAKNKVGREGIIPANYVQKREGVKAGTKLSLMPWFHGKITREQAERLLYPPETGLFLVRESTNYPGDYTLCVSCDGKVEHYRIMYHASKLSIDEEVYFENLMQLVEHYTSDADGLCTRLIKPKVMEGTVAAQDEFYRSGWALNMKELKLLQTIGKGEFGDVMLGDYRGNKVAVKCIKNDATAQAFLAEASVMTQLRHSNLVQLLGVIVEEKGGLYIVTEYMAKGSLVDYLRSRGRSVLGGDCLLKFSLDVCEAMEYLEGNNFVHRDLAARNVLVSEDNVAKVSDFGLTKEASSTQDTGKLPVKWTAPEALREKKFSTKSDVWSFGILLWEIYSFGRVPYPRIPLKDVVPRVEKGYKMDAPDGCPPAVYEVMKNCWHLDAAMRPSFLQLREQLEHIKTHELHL
Sequence of MAP kinase-interacting serine/threonine-protein kinase 2 (Homo sapiens) (Q9HBH9 whole entry, looked up): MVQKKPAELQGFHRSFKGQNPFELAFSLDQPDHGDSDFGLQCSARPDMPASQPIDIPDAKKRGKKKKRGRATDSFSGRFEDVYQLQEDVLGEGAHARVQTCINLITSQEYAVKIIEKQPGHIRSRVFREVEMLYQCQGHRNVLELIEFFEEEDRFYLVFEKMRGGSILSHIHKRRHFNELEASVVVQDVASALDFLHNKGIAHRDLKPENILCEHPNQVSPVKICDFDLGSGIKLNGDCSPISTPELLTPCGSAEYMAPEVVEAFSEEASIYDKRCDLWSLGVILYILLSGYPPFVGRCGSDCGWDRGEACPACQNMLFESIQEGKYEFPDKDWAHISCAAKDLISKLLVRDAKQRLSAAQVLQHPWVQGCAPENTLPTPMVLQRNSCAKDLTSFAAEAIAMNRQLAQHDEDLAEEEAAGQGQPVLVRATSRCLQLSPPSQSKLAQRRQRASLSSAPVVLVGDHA
Sequence of MAP kinase-interacting serine/threonine-protein kinase 1 (Homo sapiens) (Q9BUB5 whole entry, looked up): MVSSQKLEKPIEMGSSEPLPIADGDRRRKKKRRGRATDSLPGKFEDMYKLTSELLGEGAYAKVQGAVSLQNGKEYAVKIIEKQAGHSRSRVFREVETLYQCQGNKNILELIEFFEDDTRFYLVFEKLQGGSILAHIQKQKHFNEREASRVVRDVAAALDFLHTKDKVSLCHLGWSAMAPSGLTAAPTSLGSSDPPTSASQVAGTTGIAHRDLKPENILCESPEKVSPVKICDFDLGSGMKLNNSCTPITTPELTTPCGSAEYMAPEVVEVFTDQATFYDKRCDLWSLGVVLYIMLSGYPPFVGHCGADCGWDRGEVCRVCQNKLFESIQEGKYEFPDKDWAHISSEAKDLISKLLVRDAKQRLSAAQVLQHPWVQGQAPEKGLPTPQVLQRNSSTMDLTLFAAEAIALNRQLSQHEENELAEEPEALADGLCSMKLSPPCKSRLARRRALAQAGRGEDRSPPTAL
Sequence of Serine/threonine-protein kinase PLK1 (P53350 whole entry): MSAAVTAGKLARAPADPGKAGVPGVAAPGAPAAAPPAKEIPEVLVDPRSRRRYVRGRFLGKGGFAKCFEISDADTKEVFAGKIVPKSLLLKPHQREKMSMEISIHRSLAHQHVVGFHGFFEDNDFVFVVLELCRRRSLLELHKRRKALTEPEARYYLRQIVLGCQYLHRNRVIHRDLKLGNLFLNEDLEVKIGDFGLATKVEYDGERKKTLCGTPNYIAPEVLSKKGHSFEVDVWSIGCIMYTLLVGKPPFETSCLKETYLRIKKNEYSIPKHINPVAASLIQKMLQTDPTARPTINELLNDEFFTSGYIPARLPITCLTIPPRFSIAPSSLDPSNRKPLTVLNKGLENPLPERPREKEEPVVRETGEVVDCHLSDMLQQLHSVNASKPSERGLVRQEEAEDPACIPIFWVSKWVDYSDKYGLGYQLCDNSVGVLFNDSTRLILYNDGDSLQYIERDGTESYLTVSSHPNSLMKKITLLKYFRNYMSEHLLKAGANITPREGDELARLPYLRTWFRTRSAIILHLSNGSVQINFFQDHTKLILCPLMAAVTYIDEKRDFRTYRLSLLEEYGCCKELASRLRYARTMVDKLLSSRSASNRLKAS
Sequence of Serine/threonine-protein kinase PAK 6 (Homo sapiens) (Q9NQU5 whole entry, looked up): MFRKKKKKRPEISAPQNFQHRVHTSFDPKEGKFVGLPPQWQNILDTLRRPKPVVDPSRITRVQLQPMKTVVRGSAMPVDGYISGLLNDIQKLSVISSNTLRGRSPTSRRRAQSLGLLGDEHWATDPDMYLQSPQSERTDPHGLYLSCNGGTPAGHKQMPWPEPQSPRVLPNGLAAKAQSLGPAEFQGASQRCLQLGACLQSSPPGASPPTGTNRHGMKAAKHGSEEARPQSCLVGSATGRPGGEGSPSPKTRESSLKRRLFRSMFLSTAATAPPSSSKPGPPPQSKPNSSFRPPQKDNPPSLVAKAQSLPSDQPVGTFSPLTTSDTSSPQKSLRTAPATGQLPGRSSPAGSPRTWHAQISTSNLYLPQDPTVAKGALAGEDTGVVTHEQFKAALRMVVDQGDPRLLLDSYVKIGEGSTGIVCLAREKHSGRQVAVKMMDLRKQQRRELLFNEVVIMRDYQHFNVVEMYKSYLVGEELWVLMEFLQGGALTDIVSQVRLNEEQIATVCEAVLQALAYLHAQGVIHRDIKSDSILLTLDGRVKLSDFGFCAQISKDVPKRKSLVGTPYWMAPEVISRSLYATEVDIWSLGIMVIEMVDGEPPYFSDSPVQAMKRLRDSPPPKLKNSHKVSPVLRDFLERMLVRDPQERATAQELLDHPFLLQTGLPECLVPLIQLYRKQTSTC
Sequence of RAC-alpha serine/threonine-protein kinase (Homo sapiens) (P31749 whole entry): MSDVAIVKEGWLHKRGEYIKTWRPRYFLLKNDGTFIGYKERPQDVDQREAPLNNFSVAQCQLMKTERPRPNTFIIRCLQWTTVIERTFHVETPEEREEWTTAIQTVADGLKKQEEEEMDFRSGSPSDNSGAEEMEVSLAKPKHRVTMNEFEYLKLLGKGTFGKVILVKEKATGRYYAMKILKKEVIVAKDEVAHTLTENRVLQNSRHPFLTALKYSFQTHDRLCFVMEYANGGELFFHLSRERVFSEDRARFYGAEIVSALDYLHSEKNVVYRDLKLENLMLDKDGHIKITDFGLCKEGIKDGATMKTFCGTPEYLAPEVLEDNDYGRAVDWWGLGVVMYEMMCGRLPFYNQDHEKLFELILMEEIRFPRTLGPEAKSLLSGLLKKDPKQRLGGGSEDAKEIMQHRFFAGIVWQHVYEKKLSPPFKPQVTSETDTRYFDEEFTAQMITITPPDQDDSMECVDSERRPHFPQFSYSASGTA
Sequence of Serine/threonine-protein kinase N2 (Homo sapiens) (Q16513 whole entry, looked up): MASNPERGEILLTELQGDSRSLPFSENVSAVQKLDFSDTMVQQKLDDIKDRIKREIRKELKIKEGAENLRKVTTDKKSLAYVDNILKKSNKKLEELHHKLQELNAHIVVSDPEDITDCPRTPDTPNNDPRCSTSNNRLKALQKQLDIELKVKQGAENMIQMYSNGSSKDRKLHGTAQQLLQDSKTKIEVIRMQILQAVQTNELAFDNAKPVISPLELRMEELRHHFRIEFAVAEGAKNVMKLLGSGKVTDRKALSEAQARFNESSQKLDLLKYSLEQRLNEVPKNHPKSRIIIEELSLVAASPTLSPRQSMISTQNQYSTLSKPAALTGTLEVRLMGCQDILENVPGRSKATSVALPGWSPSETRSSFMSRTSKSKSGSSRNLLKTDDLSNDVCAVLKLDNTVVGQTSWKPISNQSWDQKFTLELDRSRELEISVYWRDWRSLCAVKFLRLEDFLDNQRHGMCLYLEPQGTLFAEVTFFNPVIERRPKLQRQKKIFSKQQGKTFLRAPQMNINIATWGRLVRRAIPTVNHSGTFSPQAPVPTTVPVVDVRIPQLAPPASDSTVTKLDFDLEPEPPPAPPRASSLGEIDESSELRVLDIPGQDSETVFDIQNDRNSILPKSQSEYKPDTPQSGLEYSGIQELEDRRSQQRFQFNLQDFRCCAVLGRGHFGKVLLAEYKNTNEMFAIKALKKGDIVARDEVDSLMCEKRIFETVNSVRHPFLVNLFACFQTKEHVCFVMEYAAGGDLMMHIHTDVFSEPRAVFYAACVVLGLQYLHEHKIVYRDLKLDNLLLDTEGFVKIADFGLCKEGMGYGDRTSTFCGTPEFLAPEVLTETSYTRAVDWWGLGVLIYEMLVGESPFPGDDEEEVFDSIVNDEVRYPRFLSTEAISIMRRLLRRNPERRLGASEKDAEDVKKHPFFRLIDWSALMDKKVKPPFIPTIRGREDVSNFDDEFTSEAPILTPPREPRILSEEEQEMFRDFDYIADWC

Consider `O=C(NCCCNc1nc(Nc2cccc(NC(=O)N3CCCC3)c2)ncc1I)c1cccs1`, for which the Activity was found to be 97% in experiment [1]; 79% in experiment [2]; 90% in experiment [3]; 85% in experiment [4]; 95% in experiment [5]; 91% in [6]. In addition, the Activity was found to be 96% in experiment [7]; 52% in the experiment filed under Rattus norvegicus; 80% in [8]; 87% in [9]; 90% in experiment [10]; 92% in [11]. Moreover, the Activity was 114% in experiment [12], 82% in experiment [13], 47% in experiment [14] (filed as antagonist) and 96% in experiment [15].

`CN[C@@H]1C[C@H]2O[C@@](C)([C@@H]1OC)n1c3ccccc3c3c4c(c5c6ccccc6n2c5c31)C(=O)N[C@H]4O` (stereo in doubt): the Activity in experiment [1] (filed as antagonist) is 36%; in [2] (filed as antagonist), 10%; in experiment [3], 79%; in [4], 84%; in experiment [5] it was 76%; in [6], 94%. The Activity in [7] (filed as antagonist) is 8%; in the experiment listed under Rattus norvegicus (filed as antagonist), 9%; in [8], 85%; in experiment [9], 83%; in experiment [10] it was 86%; in [11] (filed as antagonist) it was 35%. The Activity in [12] is 80%; in experiment [13] (filed as antagonist) it was 21%; in experiment [14] it was 103%; in [15] (filed as antagonist) it was 2%.

Consider `Cc1n[nH]c2ccc(-c3cncc(OC[C@@H](N)Cc4c[nH]c5ccccc45)c3)cc12`, for which the Activity in experiment [1] was 104%; in experiment [2] (filed as antagonist), 17%; in [3] (filed as antagonist) it was 5%; in [4] (filed as antagonist), 41%; in experiment [5], 89%; in experiment [6], 86%. Besides, the Activity is 54% in experiment [7]; 84% in the experiment listed under Rattus norvegicus; 120% in experiment [8]; 78% in experiment [9]; 48% in experiment [10] (filed as antagonist); 87% in [11]. The Activity in [12] was 99%; in experiment [13], 83%; in experiment [14], 97%; in experiment [15] it was 76%.
